These are literature values, as cited in patent US20140011742A1, “Bioactive Peptides and Proteins Containing Bioactive Peptides, their Uses and Processes for Making the Same” (MCGILL UNIVERSITY, priority 2010, published 2014).

For this series the following is noted: compared with β-Lg hydrolysates; as previously reported.

In the case of `O=C1O[C@H]([C@@H](O)CO)C(O)=C1O` [Vitamin C], the radical scavenging activity result is “comparable radical scavenging activity”.
